Assay results reported in patent US20150119352A1, “DINUCELOSIDE POLYPHOSPHATES FOR THE TREATMENT OF PAIN” (GlobalAcorn Ltd., priority 2012, published 2015).
“Also recorded” adds a separate entry of the source. Like-named read-outs stand apart in the source and are kept apart here.

What was measured:
[1] = molecular target: T1, rat homomeric P2X3 receptors (Rattus norvegicus, UniProt P49654); test: Whole-cell patch clamp on HEK cells expressing rat homomeric P2X3 receptors; type: cell-based; details: for depression of P2X3 current: 1 μM; for nH of the activation dose-response curve: activation of P2X3 receptors
T1 construct: transfected with rat full-length P2X3 cDNA subcloned into pIRES2-EGFP; expressed in transfected cells; host or cells: HEK293T
T1 sequence (P49654 1-397): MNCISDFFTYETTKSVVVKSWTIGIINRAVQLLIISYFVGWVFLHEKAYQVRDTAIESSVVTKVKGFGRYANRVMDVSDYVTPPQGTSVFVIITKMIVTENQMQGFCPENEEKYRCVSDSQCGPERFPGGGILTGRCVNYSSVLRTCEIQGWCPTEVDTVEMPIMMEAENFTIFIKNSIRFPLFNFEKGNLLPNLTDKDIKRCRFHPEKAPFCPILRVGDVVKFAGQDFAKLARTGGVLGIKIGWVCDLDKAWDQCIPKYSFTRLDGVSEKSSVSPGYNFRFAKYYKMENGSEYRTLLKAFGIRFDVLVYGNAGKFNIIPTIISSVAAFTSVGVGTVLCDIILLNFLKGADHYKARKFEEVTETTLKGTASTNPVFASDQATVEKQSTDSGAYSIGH
Protocol: Rat trigeminal (TG), nodose (NG) or dorsal root ganglion (DRG) neurons in culture were prepared as described previously (Sokolova et al., 2001; Simonetti et al., 2006). Neurons were plated on poly-L-lysine (0.2 mg/mL)-coated Petri dishes and cultured for 1 to 2 days under an atmosphere containing 5% CO2. Cells were used within 2 days of plating when they lacked processes. HEK293T cells were prepared as reported previously (Fabbretti et al., 2004; Sokolova et al., 2004) and transfected with rat full-length P2X3 cDNA subcloned into pIRES2-EGFP (Clontech, Mountain View, Calif., USA).
Trigeminal, nodose, DRG neurons or HEK cells were recorded in the whole-cell configuration while being continuously superfused (at 2 mL/min) with control solution containing (in mM): 152 NaCl, 5 KCl, 1 MgCl2, 2 CaCl2, 10 glucose, and 10 HEPES; pH was adjusted to 7.4 with NaOH and osmolarity was adjusted to 320 mOsM with glucose. […] Responses to selective P2X3 receptor agonist α,β-methylene-ATP (α,β-meATP; resistant to ectoATPase hydrolysis, Sigma-Aldrich) were measured using an EPC-9 amplifier and HEKA Patch Master software (HEKA Electronik, Germany). Cells were voltage-clamped at −70 mV. In most cells, series resistance was compensated by 80%. To determine half effective concentration of agonist (EC50), dose-response curves for α,β-meATP were constructed by applying different agonist doses to the same cells and fitting them with a logistic equation (Origin 8.0, Microcal, Northampton, Mass.).
Agonists and antagonists were applied, usually for 2 sec, via a rapid superfusion system (Rapid Solution Changer RSC-200; BioLogic Science Instruments, Grenoble, France) placed 100 to 150 μm near the cell. The time for the solution exchange across the cell was approximately 30 ms, as judged with liquid junction potential measurements. All chemicals, including enzymes for cell culture, were from Sigma (St. Louis, Mo.). Culture media were obtained from Invitrogen (Milan, Italy).
The peak amplitudes of the responses were measured using HEKA Patch Master software. For each agonist, dose-response plots were constructed by normalizing data with respect to the maximum response. All data are presented as mean±S.E.M. (n=the number of cells) with statistical significance assessed by paired t-test (for parametric data) or Mann-Whitney rank sum test (for non-parametric data). Best fits of data with a sigmoid function were compared with respective control fits using Origin 8.0 software. A value of P<0.05 was accepted as indicative of statistically significant difference.
The inhibitory (suppressive) potencies of AppNHppA and AppCH2ppA via high affinity desensitization (HAD) were evaluated. The inventors applied both synthetic analogues in different experiments during rhythmic 2 s long (2 […]) activations of P2X3 receptors using 10 μM α,β-meATP (for protocol see FIG. 2 top).

rats = test: Hargreaves plantar test under complete Freund adjuvant-induced thermal hyperalgesia; type: in vivo, rat; details: for antinociceptive effect on CFA-induced thermal hyperalgesia (paw withdrawal latency): injection (100 μL) into the inflamed hind paw
Protocol: FIG. 8. […] A. Time-course of the effects of 1 and 20 μM (100 μL) of AppCH2ppA and AppNHppA on the paw withdrawal latency (PWL). B. Bar-graphs of the effects of AppCH2ppA and AppNHppA on the integral PWL.
FIG. 10. […] A. Time-course of the effects of i.t. AppCH2ppA on complete Freund adjuvant-induced thermal hyperalgesia (Hargreaves plantar test). B. Bar-graphs of the effects of i.t. AppCH2ppA on rat PWL.

Structure (SMILES)	depression of P2X3 current ([1]; α,β-meATP pulses every 30 s (high rate)) [%]	depression of P2X3 current ([1]; α,β-meATP pulses every 2 min (low rate)) [%]	nH of the activation dose-response curve [1]	EC50 ([1]; agonist applied for 2 s, read-out: EC50 for activation of P2X3 mediated currents) [µM]	IC50 ([1]; test pulses of 10 μM α,β-meATP every 2 min, measured 6 min after drug application, read-out: IC50 for inhibition of P2X3 mediated currents) [µM]	antinociceptive effect on CFA-induced thermal hyperalgesia (paw withdrawal latency) (rats)	antinociceptive effect (rats; intra-thecal administration, 20 μM) [%]	antinociceptive effect (rats; intraplantar administration) [%]	antinociceptive effect of intrathecal compared with intraplantar injection (rats; intrathecal 20 μM, 100 μL)	effect of local peripheral intraplantar injection relative to intrathecal injection (rats; rat, in vivo)	EC50 [1] [µM]	IC50 [1] [µM]	amplitude of the following α,β-meATP response ([1]; 10 nM applied for 6 min)	inhibition (suppression) of test responses ([1]; 3 μM)	induction of membrane currents ([1]; 0.1 or 1 μM)	induction of membrane currents ([1]; 10 or 100 μM)	remaining activity at 0.1 µM ([1]; HEK293, read-out: test responses reduced to (% of control)) [%]	current response as % of the response induced by 10 μM of α,β-meATP ([1]; saturating 1 mM concentration, same cell) [%]
Nc1ncnc2c1ncn2[C@@H]1O[C@H](COP(=O)(O)OP(=O)(O)CP(=O)(O)OP(=O)(O)OC[C@H]2O[C@@H](n3cnc4c(N)ncnc43)C(O)C2O)C(O)C1O (stereo in doubt) [AppCH2ppA]	81±3	61.3±5	2.27±0.56	9.3 ± 1.7	0.55 ± 0.2	antinociceptive effect was observed	27	53	weaker delayed antinociceptive effect; also recorded: less pronounced analgesia	two-fold higher effect								
Nc1ncnc2c1ncn2[C@@H]1O[C@H](COP(=O)(O)OP(=O)(O)NP(=O)(O)OP(=O)(O)OC[C@H]2O[C@@H](n3cnc4c(N)ncnc43)C(O)C2O)C(O)C1O (stereo in doubt) [AppNHppA]			1.58±0.05			antinociceptive effect was observed					41.6 ± 1.3	0.2 ± 0.04	almost unchanged	strong (almost full) inhibition	not to induce membrane currents	small and slowly desensitizing currents	38.2 ± 8.5	41.2±13
